Data published in patent US8263567B2, “Treatment of hyperproliferative conditions of body surfaces” (Valderm APS, priority 2001, dated 2012).

Experiments:
[1] = cited from earlier work
DNA Synthesis = settings: grade and speed (rapid/slow); cited from earlier work
RNA Synthesis = settings: grade and speed (rapid/slow); cited from earlier work
[2] = paravenous injection; cited from earlier work
[3] = compared to other anthracyclines; cited from earlier work
[4] = in vivo; cited from earlier work
normal dermal epithelium = settings: histopathological animal experiments; cited from earlier work
[5] = concentration similar to that used in treatment of bladder cancer; cited from earlier work
psoriasis vulgaris = assay: Clinical trial, topical therapy of psoriasis vulgaris (Examples 11-16); type: in vivo, human
Experimental: A patient having dermal manifestations of psoriasis vulgaris was selected for therapy using the invention. Valrubicin was prepared as a solution (ref ex, 5) at a concentration of 2% (weight/weight) and was applied to the affected skin once daily. The patient was monitored for improvement in their manifestations of psoriasis. […] A patient having dermal manifestations of psoriasis vulgaris was selected for therapy using the invention. Valrubicin was prepared as a solution (ref ex. 8) at a concentration of 0.5% (weight/weight) and was applied to the affected skin once daily. The patient was monitored for improvement in their manifestations of psoriasis. […] A patient having dermal manifestations of psoriasis vulgaris was selected for therapy using the invention. Valrubicin was prepared as a gel (ref ex. 6) at a concentration of 1% (weight/weight) and was applied to the affected skin once daily. The patient was monitored for improvement in their manifestations of psoriasis. […] A patient having dermal manifestations of psoriasis vulgaris was selected for therapy using the invention. Valrubicin was prepared as a solution (ref. ex 5) at a concentration of 2.0% (weight/weight) and was applied to the affected skin twice daily. The patient was monitored for improvement in their manifestations of psoriasis. […] A patient having dermal manifestations of psoriasis vulgaris was selected for therapy using the invention. Valrubicin was prepared as a solution (ref. ex 5) at a concentration of 2.0 (weight/weight) and was applied to the affected skin twice a week. The patient was monitored for improvement in their manifestations of psoriasis. […] A patient having dermal manifestations of psoriasis vulgaris was selected for therapy using the invention. Valrubicin was prepared as a solution (ref. ex 5) at a concentration of 2.0% (weight/weight) and was applied to the affected skin once a week. The patient was monitored for improvement in their manifestations of psoriasis.

[6] = 40 mg/ml intravesical instillation of two hours, 6 times once a week; cited from earlier work

Row | Compound | In vivo elimination [1] | In vivo metabolism [1] | DNA Synthesis inhibition (DNA Synthesis) | RNA Synthesis inhibition (RNA Synthesis) | Local tissue toxicity [2] | Lipophilicity [3] | Cardiotoxicity and haematological toxicity versus other anthracyclines [4] | Effect on normal dermal epithelium (normal dermal epithelium) | Irritation of skin and eyes [5] | Skin lesions of psoriasis (psoriasis vulgaris; gel (ex. 6) 1% w/w, once daily) | Skin lesions of psoriasis (psoriasis vulgaris; solution (ex. 5) 2.0% w/w, once a week) | Skin lesions of psoriasis (psoriasis vulgaris; solution (ex. 5) 2% w/w, once daily) | Skin lesions of psoriasis (psoriasis vulgaris; solution (ex. 5) 2.0% w/w, twice daily) | Skin lesions of psoriasis (psoriasis vulgaris; solution (ex. 5) 2.0 (weight/weight), twice a week) | Skin lesions of psoriasis (psoriasis vulgaris; solution (ex. 8) 0.5% w/w, once daily) | Depth into the epithelium of the bladder at which an effective concentration is found [6] [μm] | Systemic uptake [6]
1 | COc1cccc2c1C(=O)c1c(O)c3c(c(O)c1C2=O)C[C@@](O)(C(=O)CO)C[C@@H]3O[C@H]1C[C@H](N)[C@H](O)[C@H](C)O1 [Doxorubicin] | Slow | Minimal | +++ (slow) | + (slow) | – | – | – | – | – | – | – | – | – | – | – | – | –
2 | COc1cccc2c1C(=O)c1c(O)c3c(c(O)c1C2=O)C[C@@](O)(C(=O)CO)C[C@@H]3O[C@H]1C[C@H](N)[C@@H](O)[C@H](C)O1 [epirubicin] | – | – | – | – | severe necrosis | – | – | – | – | – | – | – | – | – | – | – | –
3 | CCCCC(=O)OCC(=O)[C@]1(O)Cc2c(O)c3c(c(O)c2[C@@H](O[C@H]2C[C@H](NC(=O)C(F)(F)F)[C@H](O)[C@H](C)O2)C1)C(=O)c1c(OC)cccc1C3=O [Valrubicin, N-trifluoroacetyladriamycin-14-valerate] | rapid | Extensive | +++ (rapid) | +++ (rapid) | – | very lipophilic | less cardiotoxic and haematologically toxic | does not affect normal dermal epithelium | mild to no irritation | skin lesions had subsided | skin lesions had subsided | skin lesions had subsided | skin lesions had subsided | skin lesions had subsided | skin lesions had subsided | 1800 | does not result in systemic uptake
